The values that follow come from US20190365741A1, “COMBINATIONS OF THE CDK4/6 INHIBITOR LEE011 AND THE MEK1/2 INHIBITOR TRAMETINIB, OPTIONALLY FURTHER COMPRISING THE PI3K INHIBITOR BYL719 TO TREAT CANCER” (Novartis AG, priority 2015, published 2019).

Holding throughout (type): cell-based
In assay [1] the test system is 15 colorectal cancer cell lines. Put plainly: Cell proliferation, summary over the cell line panel. The following applies: single agent, across the cell lines in which growth was inhibited. The protocol: (§1) The compounds were dissolved in 100% DMSO (Sigma, Catalog number D2650) at concentrations of 20 mM and stored at −20° C. until use.
(§2) Colorectal cancer cell lines used for this study were obtained, cultured and processed from commercial vendors ATCC, CellBank Australia, DMSZ, ECACC, and HSRRB (Table 1). All cell line media were supplemented with 10% FBS (HyClone, Catalog number SH30071.03).
(§3) The debris counts were subtracted from raw nuclei counts.
The compound's effect on cell proliferation was calculated from the cell counts of the treatments relative to the cell counts of the negative control (DMSO), in FIG. 1 and FIG. 3 denoted as ‘Normalized cell count’ (=‘xnorm’) on the y-axis. […] The model input were inhibition values per drug dose: […]
(§4) (Boston Bioproducts, Catalog number BM-220).

The next assay concerns LoVo. Put plainly: Cell proliferation (cell count by microscopy), single agents and combinations. The note with it: Homo sapiens, 96 h, concentration giving 50% of cell counts relative to DMSO. The protocol: as §1, §2
(§5) Cell lines were cultured in 37° C. and 5% CO2 incubator and expanded in T-75 flasks. In all cases cells were thawed from frozen stocks, expanded through≥1 passage using 1:3 dilutions, counted and assessed for viability using a ViCell counter (Beckman-Coulter) prior to plating. […] All cell lines were determined to be free of mycoplasma contamination as determined by a PCR detection methodology performed at Idexx Radil (Columbia, Mo., USA) and correctly identified by detection of a panel of SNPs.
as §3
(§6) The compound's effect on cell proliferation was calculated from the cell counts of the treatments relative to the cell counts of the negative control (DMSO), in FIG. 1 and FIG. 3 denoted as ‘Normalized cell count’ (=‘xnorm’) on the y-axis. […] The model input were inhibition values per drug dose:
(§7) I=1−xnorm • I: inhibition • xnorm: normalized cell count (median of three replicates)
(§8) To favor combination effects at high inhibition the residuals were weighted with the observed inhibition at the same dose point. The overall combination score C of a drug combination is the sum of the weighted residuals over all concentrations:
(§9) C=ΣCone (Idata*(Idata−Imodel)) • Idata: measured inhibition Imodel: inhibition according to HSA null hypothesis
(§10) Robust combination z-scores (zC) were calculated as the ratio of the treatments' combination scores C and the median absolute deviation (mad) of non-interacting combinations:
(§11) zC=C/mad(Czero) • Czero: combination scores of non-interacting combinations zC is an indicator for the strength of the combination with:
(§12) In order to assess the effect of the triple combination all individual compounds, all three pair wise combinations, and the triple combination were tested in the same experiment.
as §4

The next assay relates to COLO-320. Described as above. The following applies: Homo sapiens; COLO-320, 72 h, concentration giving 50% of cell counts relative to DMSO. How it is done:
as §1, §2, §5, §3, §6, §7, §8, §9, §10, §11, §12, §4

A further assay relates to GP2d. The assay is described as above. The following applies: 72 h, concentration giving 50% of cell counts relative to DMSO. The protocol: as §1, §2, §5, §3, §6, §7, §8, §9, §10, §11, §12, §4
The next assay deals with DLD-1. The description is as above. The following applies: Homo sapiens; DLD-1, 72 h, concentration giving 50% of cell counts relative to DMSO. The protocol:
as §1, §2, §5, §3, §6, §7, §8, §9, §10, §11, §12, §4

The next assay relates to LS-180. The description is as above. The note with it: Homo sapiens, LS180; LS-180, 72 h, concentration giving 50% of cell counts relative to DMSO. How it is done:
as §1, §2, §5, §3, §6, §7, §8, §9, §10, §11, §12, §4

For a further assay, the system named is HT-29. Described as above. The note with it: Homo sapiens; HT-29, 72 h, concentration giving 50% of cell counts relative to DMSO. How it is done:
as §1, §2, §5, §3, §6, §7, §8, §9, §10, §11, §12, §4

For a further assay, the system named is COLO-205. The assay is described as above. The following applies: Homo sapiens; COLO-205, 72 h, concentration giving 50% of cell counts relative to DMSO. How it is done: as §1, §2, §5, §3, §6, §7, §8, §9, §10, §11, §12, §4
A further assay concerns SW480. The description is as above. The following applies: Homo sapiens; SW480, 72 h, concentration giving 50% of cell counts relative to DMSO. How it is done: as §1, §2, §5, §3, §6, §7, §8, §9, §10, §11, §12, §4
A further assay relates to SW837. The description is as above. The following applies: Homo sapiens; SW837, 72 h, concentration giving 50% of cell counts relative to DMSO. How it is done: as §1, §2, §5, §3, §6, §7, §8, §9, §10, §11, §12, §4
The subject of the next assay is RKO. The assay is described as above. The following applies: Homo sapiens, 72 h, concentration giving 50% of cell counts relative to DMSO. The protocol: as §1, §2, §5, §3, §6, §7, §8, §9, §10, §11, §12, §4
In a further assay the test system is LIM2551. The assay is described as above. The following applies: LIM2551, 72 h, concentration giving 50% of cell counts relative to DMSO. The protocol: as §1, §2, §5, §3, §6, §7, §8, §9, §10, §11, §12, §4
The subject of a further assay is LS411N. The description is as above. The note with it: Homo sapiens, LS-411N, 72 h, concentration giving 50% of cell counts relative to DMSO. The protocol:
as §1, §2, §5, §3, §6, §7, §8, §9, §10, §11, §12, §4

The subject of the next assay is NCI-H508. The assay is described as above. The note with it: Homo sapiens; NCI-H508, 72 h, concentration giving 50% of cell counts relative to DMSO. The protocol:
as §1, §2, §5, §3, §6, §7, §8, §9, §10, §11, §12, §4

For another assay, the system named is HCT-116. The description is as above. The note with it: Homo sapiens; HCT-116, 72 h, concentration giving 50% of cell counts relative to DMSO. How it is done: as §1, §2, §5, §3, §6, §7, §8, §9, §10, §11, §12, §4
A further assay concerns OUMS-23. The assay is described as above. The following applies: OUMS-23, 72 h, concentration giving 50% of cell counts relative to DMSO. The protocol:
as §1, §2, §5, §3, §6, §7, §8, §9, §10, §11, §12, §4

“Also recorded” adds a separate entry of the source.

The term IC50 denotes the concentration that gives 50% inhibition.

With `CC(=O)Nc1cccc(-n2c(=O)n(C3CC3)c(=O)c3c(Nc4ccc(I)cc4F)n(C)c(=O)c(C)c32)c1` [Trametinib, N-{3-[3-cyclopropyl-5-(2-fluoro-4-iodo-phenylamino)6,8-dimethyl-2,4,7-trioxo-3,4,6,7-tetrahydro-2H-pyrido[4,3-d]pyrimidin-1-yl]phenyl}acetamide], the “IC50 values, magnitude in words” value in assay [1] is “nanomolar to sub-micromolar”. Further, the IC50 in the assay on LoVo was 7 nM; in the assay with COLO-320, over 300 nM; in the assay on GP2d, over 300 nM; in the assay with DLD-1, 153 nM; in the assay on LS-180, 18 nM; in the assay on HT-29, 4 nM. The IC50 in the assay on COLO-205 was 4 nM; in the assay with SW480, 55 nM; with SW837 it was 51 nM; in the assay on RKO, 21 nM; in the assay on LIM2551, 5 nM; with LS411N, 7 nM. For the same compound, the results for the IC50 in the assay with NCI-H508, in the assay on HCT-116 and in the assay on OUMS-23 were 7 nM, 38 nM and over 300 nM, respectively.
Take `Cc1nc(NC(=O)N2CCC[C@H]2C(N)=O)sc1-c1ccnc(C(C)(C)C(F)(F)F)c1` [BYL719, (S)-Pyrrolidine-1,2-dicarboxylic acid 2-amide 1-({4-methyl-5-[2-(2,2,2-trifluoro-1,1-dimethyl-ethyl)-pyridin-4-yl]-thiazol-2-yl}-amide)]: in [1], the “IC50 values, magnitude in words” value is “mostly micromolar”. The IC50 with LoVo is over 10000 nM; in the assay with COLO-320 it was 8300 nM; in the assay with GP2d, 500 nM; in the assay on DLD-1, over 10000 nM; with LS-180, over 10000 nM; in the assay on HT-29 it was 2700 nM. The IC50 with COLO-205 is over 10000 nM; in the assay on SW480 it was over 10000 nM; with SW837 it was over 10000 nM; in the assay on RKO, 3900 nM; in the assay with LIM2551, 2300 nM; with LS411N, over 10000 nM. For the same compound, the IC50 in the assay on NCI-H508 was 500 nM; in the assay with HCT-116, 9800 nM; in the assay with OUMS-23 it was over 10000 nM.
Turning to `CN(C)C(=O)c1cc2cnc(Nc3ccc(N4CCNCC4)cn3)nc2n1C1CCCC1` [LEE011, 7-Cyclopentyl-2-(5-piperazin-1-yl-pyridin-2-ylamino)-7H-pyrrolo[2,3-d]pyrimidine-6-carboxylic acid dimethylamide], the “IC50 values, magnitude in words” value in assay [1] was “mostly micromolar; also recorded: sub-micromolar to micromolar”. For the same compound, the IC50 turned out to be 800 nM in the assay with LoVo; 2800 nM in the assay with COLO-320; 4500 nM in the assay with GP2d; 4100 nM in the assay on DLD-1; 1800 nM in the assay with LS-180; 800 nM with HT-29. Besides, the IC50 is 1100 nM in the assay on COLO-205; 1600 nM in the assay on SW480; over 10000 nM with SW837; 1500 nM in the assay on RKO; 1300 nM in the assay with LIM2551; 2100 nM in the assay with LS411N. In addition, the figures for the half-inhibitory concentration (IC50) with NCI-H508, with HCT-116 and in the assay on OUMS-23 were 700 nM, 4500 nM and over 10000 nM, respectively.
